Data taken from PMC9785202, “Changes in Disposition of Ezetimibe and Its Active Metabolites Induced by Impaired Hepatic Function: The Influence of Enzyme and Transporter Activities” (Pharmaceutics, 2022).
Read-outs that look alike come from different tables or passages of the source.

What was measured:
MDR1 = target: T1, MDR1 (Homo sapiens, UniProt P08183); test: Transport study with MDR1-expressing membrane vesicles; format: in vitro ADME; details: MDR1 vesicles, 10 μM, 10 min
T1 construct: purchased GenoMembrane Co., Ltd. (Yokohama, Japan); host or cells: Sf9 insect cells
Description: (§1) Human MDR1-, MRP2-, and MRP3-expressing membrane vesicles isolated from Sf9 insect cells were sourced from GenoMembrane Co., Ltd. (Yokohama, Japan).
(§2) In transport studies, a modified rapid filtration technique was used according to the manufacturer’s protocol (GenoMembrane Co.). The uptake of test compounds (10 μM EZE or EZE-Ph) into membrane vesicles (100 μg protein/100 μL) was conducted with or without 4 mM ATP in the transport medium (50 μL, pH 7.4), which included 50 mM MOPS-Tris, 70 mM KCl, and 7.5 mM MgCl2. The vesicular transport was terminated after 10 min by adding 200 μL of ice-cold stop buffer containing 40 mM MOPS-Tris and 70 mM KCl. The stopped incubate was quickly transferred to a 96-well glass fiber filter plate (Millipore, MA, USA) and washed five times with ice-cold stop buffer. The EZE and EZE-Ph inside the vesicles were released by adding 200 μL of methanol–water (70:30, v/v) and analyzed by LC-MS/MS. The ATP-dependent transport was evaluated based on the ratio of transport with ATP to that without ATP.

[1] = Portal vein and femoral vein plasma pharmacokinetics after oral EZE; format: in vivo, rats; details: oral 10 mg/kg EZE; for AUC(0-t): Sprague-Dawley, rat, po, 10 mg/kg
Description: To investigate changes due to the first-pass metabolism and biliary excretion during liver disease, CCl4-induced rats (n = 5) and control rats (n = 5) were anesthetized and the hepatic portal and femoral veins were cannulated with PE-50 polyethylene tubing. EZE was orally administered to rats at 10 mg/kg. Blood samples were collected simultaneously from the hepatic portal and femoral veins before administration (0 h), at 5, 15, and 30 min, and at 1, 2, 4, 6, 8, 12, 24, and 48 h after administration. Plasma samples were harvested as previously described.
(§3) A 25.0 μL aliquot of each sample and 25.0 μL of internal standard (50.0 ng/mL EZE-d4) were mixed with 100 μL of acetonitrile. After the samples were vortexed and centrifugated at 2250 g for 15 min, the supernatants were used to measure EZE and its metabolites by LC-MS/MS.
(§4) WinNonlin version 6.1 (Pharsight Corp., Cary, NC, USA) was used to calculate the pharmacokinetic parameters in a non-compartmental model. Statistical comparisons between the two groups were evaluated using a Student’s two-tailed unpaired t-test or the nonparametric Mann–Whitney test in GraphPad Prism (version 8.0, GraphPad Software Inc, SanDiego, CA, USA). A value of p < 0.05 was considered significant. All data were presented as the mean ± S.D. (n ≥ 3).

[2] = Pharmacokinetics after intravenous or oral administration of 10 mg/kg EZE to control and CCl4-induced rats; format: in vivo; details: for AUC(0-t) / Cmax / Tmax / half-life: Sprague-Dawley, rat, plasma, 10 mg/kg
Description: Animals were fasted for 12 h with free access to water before the experiments. EZE was administered orally (prepared in 0.5% carboxymethylcellulose sodium) or intravenously (dissolved in 10% dimethyl sulfoxide, 10% tween-80, and 80% sterile H2O) to CCl4-induced rats (n = 5) and control rats (n = 5) at 10 mg/kg. Blood samples were collected from the retro-orbital venous plexus before administration (0 h), at 5, 15, and 30 min, and at 1, 2, 4, 6, 8, 12, 24, and 48 h after administration in tubes containing EDTA-2K. Plasma samples were harvested by centrifugation at 11,600 g for 5 min at 4 °C and then stored at −80 °C until further analysis.
as §3, §4

[3] = for Autosampler stability (4°C, 24 h), RE / Post-extraction stability (room temperature 3 h), RE / Freeze-thaw stability (−20°C, three cycles), RE / Short-term stability (room temperature 3 h), RE: n = 6; for Freeze-thaw stability (−20°C, three cycles), RE / Short-term stability (room temperature 3 h), RE: rat plasma
Description: The instrument parameters were as follows: ion spray voltage, −4500 V; source temperature, 550 °C; nebulizer gas, 60 psi; heater gas, 60 psi; and curtain gas, 40 psi. […] Data were acquired and processed with the Analyst 1.6.3 software (Applied Biosystems). The standard curve ranges were 1.00 to 1000 ng/mL for EZE, 3.00 to 3000 ng/mL for EZE-Ph, and 1.00 to 1000 ng/mL for EZE-Hy in plasma.
Summary of the stability of ezetimibe and its metabolites in rat plasma (n = 6).

MRP2 = target: T2, MRP2 (Homo sapiens, UniProt Q92887); test: Transport study with MRP2-expressing membrane vesicles; format: in vitro ADME; details: MRP2 vesicles, 10 μM, 10 min
T2 construct: purchased GenoMembrane Co., Ltd. (Yokohama, Japan); host or cells: Sf9 insect cells
Description: as §1, §2

rat primary hepatocytes = test: Uptake of EZE and EZE-Ph by rat primary hepatocytes; format: in vitro ADME; details: 10 μM, 10 min, rat hepatocytes
Description: Rat primary hepatocytes were isolated from male SD rats as previously described [34]. Fresh rat hepatocytes (120,000 per well) were cultured in Williams’ E medium (containing 0.1 μM dexamethasone, 5% fetal bovine serum, 1% penicillin G/streptomycin, 1% GlutaMAX-I, and 1% insulin–transferrin–selenium) on collagen I-coated 48-well plates. Rat hepatocytes cultured for 4 h under a carbogen atmosphere were directly used for uptake assays.
The hepatocytes were rinsed three times with HBSS (37 °C) and equilibrated in HBSS for 10 min. […] After 10 min of incubation, cells were quickly washed three times with ice-cold HBSS and then lysed by the addition of 300 μL of purified water. The protein content was measured using the BCA protein assay kit. EZE and EZE-Ph were analyzed by LC-MS/MS.
The rates of substrate uptake were normalized using the protein contents of cell lysates.

MRP3 = target: T3, MRP3 (Homo sapiens, UniProt O15438); test: Transport study with MRP3-expressing membrane vesicles; format: in vitro ADME; details: MRP3 vesicles, 10 μM, 10 min
T3 construct: purchased GenoMembrane Co., Ltd. (Yokohama, Japan); host or cells: Sf9 insect cells
Description: as §1, §2

UGTs = test: Incubation of EZE with liver S9 fractions of control and CCl4-induced rats (glucuronidation); format: in vitro ADME, rat; details: 60 min
Description: One portion of the rat liver tissue was homogenized in a 5-fold volume of ice-cold phosphate buffer (including 250 mM sucrose, 10 mM Tris-HCl, and 1 mM EDTA-2Na, pH 7.4) and centrifugated at 9000 g for 20 min. After centrifugation, the supernatant was collected as the S9 fraction and stored at −80 °C.
To evaluate the effect of hepatic impairment on the hepatic metabolism of EZE, 0.3 μM, 3 μM, and 30 μM EZE were incubated with rat liver S9 fractions (2 mg of protein/mL) at 37 °C for 60 min in the Tris-HCl-buffered system (100 mM, pH 7.4), consisting of UDPGA (1 mM), MgCl2 (10 mM), and alamethicin (25 μg/mL). To investigate the effect of bile acids on the metabolism of EZE in the liver, 3 μM EZE was incubated with rat or human liver S9 fractions (2 mg of protein/mL) at 37 °C for 60 min in the Tris-HCl-buffered system with or without bile acids at 1, 10, and 100 μM. The total volume of the incubation system was 100 μL. The reactions were terminated by adding 100 μL of ice-cold acetonitrile. Samples were stored at −20 °C until analysis. EZE and EZE-Ph were detected by liquid chromatography with tandem mass spectrometry (LC-MS/MS).

[4] = iv, i.v. 10 mg/kg EZE, CCl4-induced rats
[5] = iv, i.v. 10 mg/kg EZE, control rats
[6] = po, p.o. 10 mg/kg EZE, CCl4-induced rats
[7] = po, p.o. 10 mg/kg EZE, control rats
[8] = intravenous injection of 10 mg/kg EZE

T1 sequence (P08183 whole entry): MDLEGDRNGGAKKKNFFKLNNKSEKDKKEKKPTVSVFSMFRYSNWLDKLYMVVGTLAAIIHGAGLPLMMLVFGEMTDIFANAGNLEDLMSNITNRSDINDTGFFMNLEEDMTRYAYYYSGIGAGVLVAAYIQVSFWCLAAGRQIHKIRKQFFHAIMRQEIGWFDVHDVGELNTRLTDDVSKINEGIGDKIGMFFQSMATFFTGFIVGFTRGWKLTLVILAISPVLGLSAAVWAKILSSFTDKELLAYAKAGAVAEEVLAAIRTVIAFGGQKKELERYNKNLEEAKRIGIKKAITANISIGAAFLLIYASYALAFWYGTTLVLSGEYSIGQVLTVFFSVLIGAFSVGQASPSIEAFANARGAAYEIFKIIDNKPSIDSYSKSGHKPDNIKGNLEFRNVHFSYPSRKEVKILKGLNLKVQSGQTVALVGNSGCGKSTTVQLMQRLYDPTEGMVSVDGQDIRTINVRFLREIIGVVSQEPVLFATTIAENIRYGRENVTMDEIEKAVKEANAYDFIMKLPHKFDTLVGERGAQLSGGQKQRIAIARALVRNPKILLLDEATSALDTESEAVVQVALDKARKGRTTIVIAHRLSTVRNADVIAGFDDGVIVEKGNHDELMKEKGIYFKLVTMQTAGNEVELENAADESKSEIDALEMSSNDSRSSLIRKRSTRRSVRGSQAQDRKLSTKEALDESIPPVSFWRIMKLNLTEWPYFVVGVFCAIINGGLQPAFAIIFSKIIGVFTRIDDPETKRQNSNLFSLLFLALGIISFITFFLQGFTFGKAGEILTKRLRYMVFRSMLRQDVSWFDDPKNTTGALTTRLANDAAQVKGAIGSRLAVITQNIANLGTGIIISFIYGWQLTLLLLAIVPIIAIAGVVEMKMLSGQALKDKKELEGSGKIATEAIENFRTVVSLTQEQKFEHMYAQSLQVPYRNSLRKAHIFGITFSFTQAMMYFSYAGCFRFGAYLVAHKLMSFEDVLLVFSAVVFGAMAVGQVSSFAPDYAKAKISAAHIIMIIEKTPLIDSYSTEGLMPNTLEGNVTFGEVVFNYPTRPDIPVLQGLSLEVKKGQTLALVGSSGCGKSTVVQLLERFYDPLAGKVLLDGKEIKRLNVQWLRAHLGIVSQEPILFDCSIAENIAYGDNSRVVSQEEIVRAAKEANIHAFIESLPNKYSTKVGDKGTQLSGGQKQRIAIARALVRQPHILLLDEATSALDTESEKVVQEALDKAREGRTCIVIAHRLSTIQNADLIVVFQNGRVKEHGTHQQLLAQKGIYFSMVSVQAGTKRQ
T3 sequence (O15438 whole entry): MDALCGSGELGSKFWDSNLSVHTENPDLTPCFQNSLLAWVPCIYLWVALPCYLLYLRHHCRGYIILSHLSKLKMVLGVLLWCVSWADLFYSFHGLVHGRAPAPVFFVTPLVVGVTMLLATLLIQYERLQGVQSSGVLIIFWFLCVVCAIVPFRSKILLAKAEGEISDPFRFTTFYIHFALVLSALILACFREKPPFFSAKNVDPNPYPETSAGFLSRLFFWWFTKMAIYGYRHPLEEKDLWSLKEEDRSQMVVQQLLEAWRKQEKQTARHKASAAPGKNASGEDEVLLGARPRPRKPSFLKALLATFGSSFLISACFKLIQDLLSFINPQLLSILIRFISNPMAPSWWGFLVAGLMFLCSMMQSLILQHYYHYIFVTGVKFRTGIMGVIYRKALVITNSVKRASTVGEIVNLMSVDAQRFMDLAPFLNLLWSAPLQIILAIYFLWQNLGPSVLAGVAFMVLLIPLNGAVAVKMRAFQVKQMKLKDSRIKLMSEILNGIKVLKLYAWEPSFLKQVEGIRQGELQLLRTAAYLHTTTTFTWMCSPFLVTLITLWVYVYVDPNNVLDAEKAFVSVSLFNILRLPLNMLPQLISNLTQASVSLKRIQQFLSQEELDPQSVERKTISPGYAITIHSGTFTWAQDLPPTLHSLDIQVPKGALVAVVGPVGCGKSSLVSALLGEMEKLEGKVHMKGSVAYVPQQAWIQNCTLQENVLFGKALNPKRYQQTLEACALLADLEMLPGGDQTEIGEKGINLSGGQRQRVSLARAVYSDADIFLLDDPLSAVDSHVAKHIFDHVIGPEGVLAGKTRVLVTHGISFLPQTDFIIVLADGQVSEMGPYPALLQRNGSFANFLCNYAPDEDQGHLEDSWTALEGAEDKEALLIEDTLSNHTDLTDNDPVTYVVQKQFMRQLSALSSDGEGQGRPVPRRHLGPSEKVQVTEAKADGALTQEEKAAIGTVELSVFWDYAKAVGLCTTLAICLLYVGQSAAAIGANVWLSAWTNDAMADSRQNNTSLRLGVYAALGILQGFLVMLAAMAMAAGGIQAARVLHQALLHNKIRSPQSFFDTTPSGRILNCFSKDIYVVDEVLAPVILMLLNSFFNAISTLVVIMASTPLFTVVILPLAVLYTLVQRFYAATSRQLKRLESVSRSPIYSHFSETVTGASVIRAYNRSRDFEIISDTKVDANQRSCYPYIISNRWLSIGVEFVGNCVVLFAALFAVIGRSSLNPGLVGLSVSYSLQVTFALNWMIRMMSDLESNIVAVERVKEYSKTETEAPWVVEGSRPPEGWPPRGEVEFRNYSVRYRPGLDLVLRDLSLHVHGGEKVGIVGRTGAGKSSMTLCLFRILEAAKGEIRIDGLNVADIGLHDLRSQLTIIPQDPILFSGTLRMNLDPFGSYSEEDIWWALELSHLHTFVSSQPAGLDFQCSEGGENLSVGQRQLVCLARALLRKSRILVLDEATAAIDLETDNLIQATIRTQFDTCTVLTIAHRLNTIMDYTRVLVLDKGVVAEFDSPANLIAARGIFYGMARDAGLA
T2 sequence (Q92887 whole entry): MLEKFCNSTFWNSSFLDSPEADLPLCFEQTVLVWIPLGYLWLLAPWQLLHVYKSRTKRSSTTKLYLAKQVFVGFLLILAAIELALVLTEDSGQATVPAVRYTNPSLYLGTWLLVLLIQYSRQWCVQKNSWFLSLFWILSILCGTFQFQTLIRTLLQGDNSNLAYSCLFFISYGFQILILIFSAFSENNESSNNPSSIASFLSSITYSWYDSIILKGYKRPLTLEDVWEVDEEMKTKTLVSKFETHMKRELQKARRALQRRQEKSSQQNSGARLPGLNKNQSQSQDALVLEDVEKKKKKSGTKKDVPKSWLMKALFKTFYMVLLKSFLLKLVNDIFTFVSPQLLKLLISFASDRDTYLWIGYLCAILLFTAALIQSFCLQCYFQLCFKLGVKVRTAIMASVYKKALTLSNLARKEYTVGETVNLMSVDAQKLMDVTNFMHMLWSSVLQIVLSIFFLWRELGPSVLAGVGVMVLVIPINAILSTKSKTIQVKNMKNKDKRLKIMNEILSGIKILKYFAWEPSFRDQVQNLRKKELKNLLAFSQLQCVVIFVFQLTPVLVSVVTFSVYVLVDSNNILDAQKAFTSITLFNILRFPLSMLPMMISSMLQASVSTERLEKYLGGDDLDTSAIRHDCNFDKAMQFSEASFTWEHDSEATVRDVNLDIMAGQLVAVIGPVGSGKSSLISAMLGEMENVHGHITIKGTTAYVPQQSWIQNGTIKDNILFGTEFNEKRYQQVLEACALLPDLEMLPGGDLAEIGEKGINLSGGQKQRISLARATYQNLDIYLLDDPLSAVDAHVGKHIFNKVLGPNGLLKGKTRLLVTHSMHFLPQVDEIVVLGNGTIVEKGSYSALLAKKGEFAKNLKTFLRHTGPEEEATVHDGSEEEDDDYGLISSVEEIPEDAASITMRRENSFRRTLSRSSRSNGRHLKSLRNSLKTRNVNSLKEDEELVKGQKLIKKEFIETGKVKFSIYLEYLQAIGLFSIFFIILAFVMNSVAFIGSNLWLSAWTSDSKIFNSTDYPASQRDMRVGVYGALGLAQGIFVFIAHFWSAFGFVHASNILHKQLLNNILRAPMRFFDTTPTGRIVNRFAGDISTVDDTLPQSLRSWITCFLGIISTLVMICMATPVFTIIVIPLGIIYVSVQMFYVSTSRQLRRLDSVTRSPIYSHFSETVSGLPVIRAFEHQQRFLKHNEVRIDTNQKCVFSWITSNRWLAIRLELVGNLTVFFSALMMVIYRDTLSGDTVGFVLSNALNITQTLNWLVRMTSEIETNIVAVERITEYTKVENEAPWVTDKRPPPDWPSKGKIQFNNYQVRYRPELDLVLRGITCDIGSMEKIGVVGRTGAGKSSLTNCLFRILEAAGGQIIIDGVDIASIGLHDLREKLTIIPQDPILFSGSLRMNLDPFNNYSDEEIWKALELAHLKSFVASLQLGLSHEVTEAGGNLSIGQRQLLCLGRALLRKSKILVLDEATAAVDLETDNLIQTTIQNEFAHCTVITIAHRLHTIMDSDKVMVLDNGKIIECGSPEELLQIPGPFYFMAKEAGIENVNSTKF

## O=C(O)[C@H]1O[C@@H](Oc2ccc([C@@H]3[C@@H](CC[C@H](O)c4ccc(F)cc4)C(=O)N3c3ccc(F)cc3)cc2)[C@H](O)[C@@H](O)[C@@H]1O [EZE-Ph, ezetimibe phenoxy β-D-glucuronide]
MDR1
  +ATP/-ATP ratio: 5.64
[1]; femoral vein plasma, CCl4-induced rats, read-out: AUC0–t in femoral vein plasma
  AUC(0-t): 12500 ng·h/mL
[1]; femoral vein plasma, control rats, read-out: AUC0–t in femoral vein plasma
  AUC(0-t): 2580 ng·h/mL
[1]; portal vein plasma, CCl4-induced rats, read-out: AUC0–t in portal vein plasma
  AUC(0-t): 15900 ng·h/mL
[1]; portal vein plasma, control rats, read-out: AUC0–t in portal vein plasma
  AUC(0-t): 14800 ng·h/mL
[1]
  AUC0-t in femoral vein blood, fold increase in CCl4-induced rats vs control: 4.83 fold
[1]; CCl4-induced rats
  AUC0–t portal vein plasma vs femoral vein plasma, fold higher: 1.28 fold
[1]; control rats
  AUC0–t portal vein plasma vs femoral vein plasma, fold higher: 5.75 fold
[2]; [4]
  AUC(0-t): 40400 ± 1810 ng·h/mL
  Cmax: 6970 ± 807 ng/mL
  Tmax: 0.45 ± 0.11 h
  half-life: 9.58 ± 6.2 h
[2]; [5]
  AUC(0-t): 2470 ± 418 ng·h/mL
  Cmax: 1050 ± 240 ng/mL
  Tmax: 0.083 h
  half-life: 8.96 ± 2.19 h
[2]; [6]
  AUC(0-t): 18300 ± 6990 ng·h/mL
  Cmax: 1340 ± 585 ng/mL
  Tmax: 3 ± 1.41 h
  half-life: 8.98 ± 2.1 h
[2]; [7]
  AUC(0-t): 4170 ± 1140 ng·h/mL
  Cmax: 276 ± 69 ng/mL
  Tmax: 8.8 ± 4.6 h
  half-life: 5.5 ± 0.36 h
[2]; [8]
  AUC0–t, fold higher in CCl4-induced rats than in control rats: 16.4 fold
  AUC0–t, fold higher than that of EZE-Hy: approximately 2.5 fold
[2]; oral administration of 10 mg/kg EZE
  AUC0–t, fold higher in CCl4-induced rats than in control rats: 4.4 fold
[3]; HQC (800/2400/800 ng/ml)
  Autosampler stability (4°C, 24 h), RE: 6.0%
  Post-extraction stability (room temperature 3 h), RE: 5.1%
  Freeze-thaw stability (−20°C, three cycles), RE: -0.4%
  Short-term stability (room temperature 3 h), RE: 0.3%
[3]; LQC (3.00/9.00/3.00 ng/ml)
  Autosampler stability (4°C, 24 h), RE: 5.3%
  Post-extraction stability (room temperature 3 h), RE: 8.8%
  Freeze-thaw stability (−20°C, three cycles), RE: 0.8%
[3]; LQC and HQC samples, short-term, post-extraction, auto-sampler, three freeze/thaw cycles
  stability in rat plasma under the test conditions: stable
[3]; LQC (EZE/EZE-Ph/EZE-Hy 3.00/9.00/3.00 ng/ml)
  Short-term stability (room temperature 3 h), RE: -1.9%
[3]; room temperature for 2 h
  stability in blood: stable
MRP2
  +ATP/-ATP ratio: 65.5
Rat primary hepatocytes
  uptake at 37 °C relative to that at 4 °C: 50.0 times
MRP3
  +ATP/-ATP ratio: 5.71
UGTs; liver S9, 0.3 μM EZE
  decrease of formation of EZE-Ph in CCl4-induced rats compared with control rats: 8.80%
UGTs; liver S9, 3 μM EZE
  decrease of formation of EZE-Ph in CCl4-induced rats compared with control rats: 12.7%
UGTs; liver S9, 30 μM EZE
  decrease of formation of EZE-Ph in CCl4-induced rats compared with control rats: 27.4%
